The values below are quoted from earlier work in patent US9969730B2, “Stable SNS-595 compositions and methods of preparation” (Sunesis Pharmaceuticals, Inc., priority 2009, dated 2018).

Data set [1] concerns various cancer cell lines.
The subject of the next data set is xenografts. The note with it: in vivo.
In data set [2] the test system is acute myeloid leukemia and ovarian cancer. The note with it: human cancer patients.

In the case of `CN[C@H]1CN(c2ccc3c(=O)c(C(=O)O)cn(-c4nccs4)c3n2)C[C@@H]1OC` [SNS-595, (+)-1,4-dihydro-7-[(3S,4S)-3-methoxy-4-methylamino-1-pyrrolidinyl]-4-oxo-1-(2-thiazolyl)-1,8-naphthyridine-3-carboxylic acid], in data set [1], the “preclinical activity against various cancer cell lines” value was “preclinical activity”. The “preclinical activity against xenografts” value with xenografts was “preclinical activity”. Also, in data set [2], the “clinical activity in the treatment of acute myeloid leukemia and ovarian cancer” value is reported as “clinical activity”.
